# Read-outs that look alike come from different tables or passages of the source.
# Assays:
# tumor cells = experiment: Cytostatic and cytotoxic activity; format: cell-based; settings: FIGS. 3A and 3B, compared with sulindac sulfide
# From the text: Cytotoxic activity is defined as the ability the treatment to reduce cell number below the number when treatment was initiated and is an indicator of chemotherapeutic efficacy. Cytostasis is defined as the ability of the treatment to reduce cell number relative to untreated cells and is an indicator of chemopreventive efficacy.
# [1] = tested on: human HT29 colon tumor cell line; experiment: Growth inhibitory activity / in vitro cytotoxicity against human HT29 colon tumor cells
# From the text: These toxicities include gastrointestinal, renal and hematological disturbances which results from COX-1 inhibition as well as cardiovascular toxicity which likely results from COX-2 inhibition.
# [2] = Toxicity in mice, maximum tolerated dose; format: in vivo
# Experimental: FIGS. 5A and 5B show the reduced toxicity of SRI 21009 in mice relative to sulindac. Following a once a day dosing schedule, the maximum tolerated dose of sulindac is estimated to be 50 mg/kg in comparison to 300 mg/kg for SRI 21009.
# [3] = Oral bioavailability, plasma levels after oral administration; format: in vivo
# COX-2 = biological target: T1, COX-2 (Homo sapiens, UniProt P35354); experiment: COX-2 inhibitory activity; format: biochemical
# T1 sequence (P35354 18-604): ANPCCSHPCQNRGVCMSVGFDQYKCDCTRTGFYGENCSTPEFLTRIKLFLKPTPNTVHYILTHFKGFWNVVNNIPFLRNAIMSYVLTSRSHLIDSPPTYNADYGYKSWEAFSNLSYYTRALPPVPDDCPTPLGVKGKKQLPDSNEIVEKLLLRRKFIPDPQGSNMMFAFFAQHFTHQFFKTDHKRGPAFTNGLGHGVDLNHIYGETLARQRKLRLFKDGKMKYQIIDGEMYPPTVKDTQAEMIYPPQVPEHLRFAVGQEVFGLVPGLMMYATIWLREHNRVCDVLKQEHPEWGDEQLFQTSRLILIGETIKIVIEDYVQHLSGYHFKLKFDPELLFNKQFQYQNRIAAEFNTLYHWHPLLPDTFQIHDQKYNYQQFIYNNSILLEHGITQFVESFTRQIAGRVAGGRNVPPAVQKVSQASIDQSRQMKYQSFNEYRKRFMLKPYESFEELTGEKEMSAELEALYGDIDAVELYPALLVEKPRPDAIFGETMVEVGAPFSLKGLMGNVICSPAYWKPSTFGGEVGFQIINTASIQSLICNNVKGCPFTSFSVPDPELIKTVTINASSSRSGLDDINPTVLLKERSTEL
# COX-1 = COX-1 (Homo sapiens, UniProt P23219); experiment: COX-1 inhibitory activity; format: biochemical
# [4] = tested on: panel of histologically diverse tumor cell types; experiment: Growth inhibitory activity against a panel of tumor cell types; format: cell-based; settings: FIG. 2
# [5] = tested on: human colon HT29 colon tumor cells; experiment: Antitumor activity in athymic nude mice implanted with HT29 tumor cells; format: in vivo; settings: 300 mg/kg, once a day dosing schedule, HT29 xenograft
# [6] = Homo sapiens, HT-29, read-out: IC50 value, growth inhibitory activity
# [7] = Homo sapiens, HT-29, read-out: cytotoxity IC50 values (50% inhibitory concentration)
# [8] = read-out: IC50 value, growth inhibitory activity, human HT29 colon tumor cell line, Table B upper part
# [9] = read-out: IC50, growth inhibitory activity, human HT29 colon tumor cell line, Table B lower part
# Chain of COX-1 (P23219 24-599): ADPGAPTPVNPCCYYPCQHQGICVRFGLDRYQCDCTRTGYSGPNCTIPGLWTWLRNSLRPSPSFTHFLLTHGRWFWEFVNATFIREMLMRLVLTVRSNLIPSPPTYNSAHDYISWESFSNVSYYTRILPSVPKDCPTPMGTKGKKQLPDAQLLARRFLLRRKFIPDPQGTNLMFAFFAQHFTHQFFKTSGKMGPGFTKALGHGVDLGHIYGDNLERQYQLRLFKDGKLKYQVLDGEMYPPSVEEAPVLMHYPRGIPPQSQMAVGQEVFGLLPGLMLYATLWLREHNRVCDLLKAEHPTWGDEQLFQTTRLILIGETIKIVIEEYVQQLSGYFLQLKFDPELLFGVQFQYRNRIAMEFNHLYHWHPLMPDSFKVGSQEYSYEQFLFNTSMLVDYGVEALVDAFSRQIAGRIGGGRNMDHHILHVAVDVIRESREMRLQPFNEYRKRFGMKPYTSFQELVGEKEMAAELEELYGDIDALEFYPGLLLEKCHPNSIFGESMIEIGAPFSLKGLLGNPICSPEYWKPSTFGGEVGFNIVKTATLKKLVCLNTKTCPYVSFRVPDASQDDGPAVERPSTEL
compound,measurement,setting,value
"CC1=C(CC(=O)NCCN(C)C)c2cc(F)ccc2C1=Cc1ccc([S+](C)[O-])cc1 (centres unmarked) [SRI 21004, N-[2-(Dimethylamino)ethyl]-5-fluoro-2-methyl-1-[[4-(methylsulfinyl)phenyl]methylene]-1H-indene-3-acetamide]",cytotoxic activity (reduce cell number below the number when treatment was initiated),tumor cells,greater potential for chemotherapeutic efficacy compared with sulindac sulfide
same,IC50,[1]; [6],25.1 µM
same,IC50,[1]; [7],29.2 µM
"CC1=C(CC(=O)NCC2CCCN2C)c2cc(F)ccc2C1=Cc1ccc([S+](C)[O-])cc1 (centres unmarked) [SRI 21008, 5-Fluoro-2-methyl-N-[(1-methyl-2-pyrrolidinyl)methyl]-1-[[4-(methylsulfinyl)phenyl]methylene]-1H-indene-3-acetamide]",IC50,[1]; [6],18.7 µM
"CSc1ccc(/C=C2/C(C)=C(CC(=O)NCCN(C)C)c3cc(F)ccc32)cc1 [SRI 21009, N-[2-(Dimethylamino)ethyl]-5-fluoro-2-methyl-1-[[4-(methylsulfide)phenyl]methylene]-1H-indene-3-acetamide]",MTD,"[2]; mouse, in vivo",~300 mg/kg
same,"sulindac sulfoxide, sulfone, or sulfide detected in the plasma",[3]; following SRI 21009 administration,Negligible amounts
same,achievable plasma levels,"[3]; oral administration, single dose of 200 mg/kg",exceeded the IC50 value for in vitro growth inhibition
same,IC50,COX-2,164 µM
same,IC50,COX-1,1480 µM
same,growth inhibitory activity across tumor cell types,[4],enhanced sensitivity of tumor cells derived from colorectal tumors compared with other tumor types
same,antitumor activity,[5],as effective as sulindac at 50 mg/kg
same,IC50,[1]; [6],1.47 µM
same,IC50,[1]; [7],1.47 µM
"CC1=C(CC(=O)NCCN2CCNCC2)c2cc(F)ccc2C1=Cc1ccc([S+](C)[O-])cc1 (centres unmarked) [SRI 21113, 5-Fluoro-2-methyl-1-[[4-(methylsulfinyl)phenyl]methylene]-N-[2-(1-piperazinyl)ethyl]-1H-indene-3-acetamide]",IC50,[1]; [6],76.9 µM
"CC1=C(CC(=O)NCCN2CCCCC2)c2cc(F)ccc2C1=Cc1ccc([S+](C)[O-])cc1 (centres unmarked) [SRI 21114, 5-Fluoro-2-methyl-1-[[4-(methylsulfinyl)phenyl]methylene]-N-[2-(1-piperidinyl)ethyl]-1H-indene-3-acetamide]",IC50,[1]; [6],19.7 µM
"CC1=C(CC(=O)NCCc2cccnc2)c2cc(F)ccc2C1=Cc1ccc([S+](C)[O-])cc1 (centres unmarked) [SRI 21162, 5-Fluoro-2-methyl-1-[[4-(methylsulfinyl)phenyl]methylene]-N-[2-(3-pyridinyl)ethyl]-1H-indene-3-acetamide]",IC50,[1]; [6],99.8 µM
"CC1=C(CC(=O)NCCN2CCCC2)c2cc(F)ccc2C1=Cc1ccc([S+](C)[O-])cc1 (centres unmarked) [SRI 21169, 5-Fluoro-2-methyl-1-[[4-(methylsulfinyl)phenyl]methylene]-N-[2-(1-pyrrolidinyl)ethyl]-1H-indene-3-acetamide]",IC50,[1]; [6],17.2 µM
"CC1=C(CC(=O)NCCN2CCOCC2)c2cc(F)ccc2C1=Cc1ccc([S+](C)[O-])cc1 (centres unmarked) [SRI 21178, 5-Fluoro-2-methyl-1-[[4-(methylsulfinyl)phenyl]methylene]-N-[2-(4-morpholinyl)ethyl]-1H-indene-3-acetamide]",IC50,[1]; [6],114 µM
"CC1=C(CC(=O)NCCN)c2cc(F)ccc2C1=Cc1ccc([S+](C)[O-])cc1 (centres unmarked) [SRI 21185, N-(2-Aminoethyl)-5-fluoro-2-methyl-1-[[4-(methylsulfinyl)phenyl]methylene]-1H-indene-3-acetamide]",IC50,[1]; [6],85.2 µM
CC1=C(CC(=O)NCCc2c[nH]cn2)c2cc(F)ccc2C1=Cc1ccc([S+](C)[O-])cc1 (centres unmarked) [SRI 21229],IC50,[1]; [8],32.6 µM
"CC1=C(CC(=O)NCc2ccc(N(C)C)cc2)c2cc(F)ccc2C1=Cc1ccc([S+](C)[O-])cc1 (centres unmarked) [SRI 21275, N-[[4-(Dimethylamino)phenyl]methyl]-5-fluoro-2-methyl-1-[[4-(methylsulfinyl)phenyl]methylene]-1H-indene-3-acetamide]",IC50,[1]; [6],6.3 µM
CCN(CC)CCNC(=O)CC1=C(C)C(=Cc2ccc([S+](C)[O-])cc2)c2ccc(F)cc21 (centres unmarked) [SRI 21276],IC50,[1]; [8],18.2 µM
"CC1=C(CC(=O)N2CCN(C)CC2)c2cc(F)ccc2C1=Cc1ccc([S+](C)[O-])cc1 (centres unmarked) [SRI 21387, Ethanone, 2-[5-fluoro-2-methyl-1-[[4-(methylsulfinyl)phenyl]methylene]-1H-inden-3-yl]-1-(4-methylpiperazinyl)]",IC50,[1]; [9],71 µM
CC1=C(CC(=O)NCCN(C)C)c2cc(F)ccc2/C1=C\c1ccc(S(C)(=O)=O)cc1 [SRI 21487],IC50,[1]; [9],10 µM
"CSc1ccc(/C=C2/C(C)=C(CC(=O)NCc3ccc(N(C)C)cc3)c3cc(F)ccc32)cc1 [SRI 21540, N-[[4-(Dimethylamino)phenyl]methyl]-(Z)-5-fluoro-2-methyl-3-[[4-(methylthio)phenyl]methylene]-1H-indene-3-acetamide]",IC50,[1]; [9],3.22 µM
"CC1=C(CC(=O)Nc2ccc(N(C)C)cc2)c2cc(F)ccc2/C1=C\c1ccc([S+](C)[O-])cc1 (centres unmarked) [SRI 21590, N-[[4-(Dimethylamino)phenyl]-(Z)-5-fluoro-2-methyl-3-[[4-(methylsulfinyl)phenyl]methylene]]-1H-indene-3-acetamide]",IC50,[1]; [9],230 µM
CNCCN(C)C(=O)CC1=C(C)/C(=C/c2ccc(SC)cc2)c2ccc(F)cc21 [SRI 21596],IC50,[1]; [9],1.62 µM
"CSc1ccc(/C=C2/C(C)=C(CC(=O)Nc3ccc(N(C)C)cc3)c3cc(F)ccc32)cc1 [SRI 21623, N-[[4-(Dimethylamino)phenyl]-(Z)-5-fluoro-2-methyl-3-[[4-(methylthio)phenyl]methylene]]-1H-indene-3-acetamide]",solubility during the bioassay,[1],solubility issues during the bioassay
same,IC50,[1]; [9],> 100 µM
"CSc1ccc(/C=C2/C(C)=C(CC(=O)O)c3cc(F)ccc32)cc1 [Sulindac sulfide, reference compound]",IC50,[1]; [6],45.2 µM
same,IC50,[1]; [7],71.2 µM
"CC1=C(CC(=O)O)c2cc(F)ccc2/C1=C\c1ccc([S+](C)[O-])cc1 (centres unmarked) [Sulindac sulfoxide, Sulindac]",maximum tolerated dose,"[2]; mice, once a day dosing schedule",~50 mg/kg
same,IC50,[1]; [8],450 µM
same,IC50,"[1]; read-out: cytotoxity IC50 values (50% inhibitory concentration), human colon tumor cells, in vitro",479 µM
"N,2-Dimethyl-N-[2-(dimethylamino)ethyl]-5-fluoro-1-[[4-ethylsulfinyl)phenyl]methylene]-1H-indene-3-acetamide [SRI 21179]",IC50,[1]; [8],19.8 µM
